Consider one molecule from publication PMC10141604, “Small-Molecule Inhibition of Androgen Receptor Dimerization as a Strategy against Prostate Cancer” (ACS Central Science, 2023).

One series has as its system NIH-3T3. The series can be described thus: MTT cell viability assay, NIH-3T3. To be noted: 72 h. The series is classed as cell-based, murine. On the procedure:
(§1) 3-(4,5-dimethythiazol-2-yl)-2,5-diphenyl-2-H-tetrazolium bromide (MTT) colorimetric assay was employed to investigate cell viability. Cells were seeded into 96-well plates with 2-5× 10^3 cells per well (5× 10^3 cells/well for LNCaP, 22RV1, NIH-3T3, GES-1, Chang, […]
(§2) NCI-H1299, U2OS, U87) for 1 day incubation at 37 °C. Then, the cells were treated with various concentrations of compounds (22.86 nM - 50 μM) and incubated for 72 h. Then, 10 μl MTT (5 mg/ml) was added into each well and incubated for 4 h. Afterwards, 100 μl of triplex 10% SDS-0.1% HCl-phosophate-buffered saline (PBS) solutions was added into each well and incubated for overnight. The absorbance at 570 nm was measured (Eon, Bioteck, Winooski, VT). […]
For orientation: Tetrazolium assays rely on reduction of a dye to a coloured formazan, in cell work by metabolically active cells.

The next series concerns LNCaP. As to the kind of experiment: MTT cell viability assay, LNCaP. The class given is cell-based. To be noted: 72 h. How it is done: as §1, §2
The target in the next series is T1, AR (Homo sapiens, UniProt P10275, T878A).
T1 construct: The cells of LNCaP-ARR2PB-eGFP were; endogenous in cells; host or cells: LNCaP-ARR2PB-eGFP
T1 sequence (P10275 1-920 T878A): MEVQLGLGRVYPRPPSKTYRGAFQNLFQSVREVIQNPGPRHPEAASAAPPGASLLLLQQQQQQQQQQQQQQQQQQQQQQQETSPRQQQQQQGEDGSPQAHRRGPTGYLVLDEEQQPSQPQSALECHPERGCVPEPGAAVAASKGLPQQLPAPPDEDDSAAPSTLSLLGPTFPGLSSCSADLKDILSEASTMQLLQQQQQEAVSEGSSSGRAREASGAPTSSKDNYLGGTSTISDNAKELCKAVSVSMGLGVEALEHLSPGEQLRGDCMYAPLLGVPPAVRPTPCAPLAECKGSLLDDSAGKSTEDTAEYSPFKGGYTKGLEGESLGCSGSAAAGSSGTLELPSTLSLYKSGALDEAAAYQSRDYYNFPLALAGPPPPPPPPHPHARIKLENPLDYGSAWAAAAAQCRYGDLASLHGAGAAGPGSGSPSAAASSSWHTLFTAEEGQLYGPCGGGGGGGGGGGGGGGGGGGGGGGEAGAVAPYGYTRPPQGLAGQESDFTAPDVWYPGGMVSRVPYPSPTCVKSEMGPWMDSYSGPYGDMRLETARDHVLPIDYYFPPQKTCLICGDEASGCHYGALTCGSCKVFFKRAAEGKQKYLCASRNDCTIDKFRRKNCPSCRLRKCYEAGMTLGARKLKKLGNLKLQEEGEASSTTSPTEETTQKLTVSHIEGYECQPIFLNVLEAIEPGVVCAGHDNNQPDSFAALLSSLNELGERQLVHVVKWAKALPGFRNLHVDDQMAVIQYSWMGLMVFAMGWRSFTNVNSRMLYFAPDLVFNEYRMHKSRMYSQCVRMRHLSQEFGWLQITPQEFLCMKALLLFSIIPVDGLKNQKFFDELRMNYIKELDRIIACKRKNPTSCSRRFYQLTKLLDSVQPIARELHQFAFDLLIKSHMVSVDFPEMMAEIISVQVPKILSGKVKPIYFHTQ
As to the kind of experiment: AR transcriptional activity assay (LNCaP-ARR2PB-eGFP cells). The series is classed as cell-based. To be noted: 5 nM DHT. On the procedure: University, Hangzhou, China), respectively. […]
AR Transcriptional Activity Assay
The AR transcriptional activities were determined using the constructed LNCaP-ARR2PB-eGFP cell as previously reported.11, 12 The cells of LNCaP-ARR2PB-eGFP were […]
by seeding into a 96 -well plate (3.5× 10^4 cells/well) for 1 day incubation at 37 °C. Then, the cells were treated with 5 nM DHT and various concentrations of compounds (10 μM […]
the fluorescence intensities were determined using a Synergy H1 microplate reader

The next series deals with T2, AR LBP (Rattus norvegicus, UniProt P15207).
T2 construct: purchased Invitrogen Life Technologies A15880
T2 sequence (P15207 651-882 limits assumed): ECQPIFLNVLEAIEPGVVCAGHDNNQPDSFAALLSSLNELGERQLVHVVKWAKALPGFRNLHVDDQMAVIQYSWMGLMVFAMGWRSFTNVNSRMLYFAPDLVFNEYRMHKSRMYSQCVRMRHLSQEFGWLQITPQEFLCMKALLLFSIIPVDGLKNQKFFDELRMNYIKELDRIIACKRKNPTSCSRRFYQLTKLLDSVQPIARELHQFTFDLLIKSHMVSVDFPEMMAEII
The series can be described thus: Competitive ligand-binding assay (PolarScreen AR competitor assay). On the procedure: Competitive Ligand Binding Assay
The binding affinities of M17 and M17-B15 to the LBP of AR LBD were determined
using PolarScreen™ Androgen Receptor Competitor Assay Kit (#A15880, Invitrogen Life
Technologies) according to the user manual. […]

Series [1] concerns secreted PSA from LNCaP cells. The series can be described thus: Secreted prostate-specific antigen (PSA) assay. The class given is cell-based. How it is done:
Secreted Prostate-Specific Antigen (PSA) Assay
After the AR transcriptional activity assay was completed, 300 μl of the media
supernatant including the secreted PSA was measured using […]® 2000 XPi
Immunoassay System (Siemens Ltd., Erlangen, Germany). […]

Consider `CC(=O)Cc1nsc(NC(=O)c2cc(-c3ccc(Cl)c(Cl)c3)oc2C)n1` [Compound M17], for which, in the series on NIH-3T3, the “cytotoxicity against NIH-3T3” value is “negligible cytotoxicity”. Also, in the series on LNCaP, the “inhibition of LNCaP viability” value is reported as “dose-dependent manner in the inhibition”. Also, on AR (LNCaP-ARR2PB-eGFP cells, 3 days), the IC50 (as a rule, the concentration at which inhibition is half-maximal) came to 950 ± 390 nM. The inhibition (as a rule, the percentage by which the read-out fell short of the control) at 10 µM at AR (at 10 μM) worked out at 92.7%. For the same molecule, on AR LBP, the “binding to the conventional LBP” value was “excluded”. For the same molecule, the “inhibition of the secretion of PSA” value in series [1] was “dose-dependently inhibits”.
